Data from patent US20190225683A1, “TARGETING OXAZOLE STRUCTURES FOR THERAPY AGAINST INFLAMMATORY DISEASES” (THE BRIGHAM AND WOMEN'S HOSPITAL, INC., priority 2015, published 2019).
“Also recorded” adds a separate entry of the source.

Key:
MODE-K cells = MODE-K cells stimulated with compounds, Mttp and Cxcl16 transcripts by qPCR; format: cell-based, mouse; conditions: for Cxcl16 transcript expression / Mttp transcript expression: MODE-K cells, 48 hours, qPCR normalized to β-actin; for Transcriptional pattern of NKT signature genes (Mttp, Cxcl16): MODE-K epithelial cells
Method: Mode-K cells were stimulated for 48 hours with the listed compounds and MUT) (2A) and Cxcl16 (2B) transcript express was quantified by qPCR normalized to β-actin, a housekeeping gene. Graph color coded to indicate control, OxC, and ITE compounds. […]
Kinetic transcript profiles of Mttp, Cxcl16, CD1d, and Hsp110 are assessed by qPCR normalizing transcript abundance to house keeping gene, (3-actin. Protein expression is quantified by immunoblot (MTTP, HSP110) or ELISA (CXCL16). CD1d protein expression is monitored using monoclonal antibodies conjugated to phycoerythrin and fluorescein isothyocynate to assess CD1d trafficking to and from the cell surface.[89]Stimulatory ligands are washed out prior to administration of αGC, and conditioned cells are co-cultured over night with 4 classes of invariant (DN32.D3, 24.7, 24.8) or non-variant (14S.6) to assess αGC specific and autoreactive responses to epithelial and myeloid cell lipid presentation. Production of IL-10, IL-4, IL-13, IFNγ response to epithelial and myeloid, and the source of cytokine production (APC or NKT) are determined using gluteraldehyde fixation. Primary iNKT cells are isolated from colonic lamina propria or peripheral organs (liver, spleen, mesenteric lymph node) and purified by FACS (BD ARIA-II Sorter) using monoclonal antibodies against CD45, TCRI3, CD3E, and CD1d:αGC loaded tetramer (APC conjugated) and exclusion of unloaded CD1d tetramer (PE). […] Strand specific libraries are generated using 500 ng RNA input and subject to paired-end 100 bp read sequencing using a HISEQ2000 at the Dana Farber Cancer Institute. Sequence reads are aligned to the mouse mm10 reference genome using Tophat alignments restricted to uniquely mapping reads with <2 possible mismatches permitted. […] Candidate transcripts arevalidated in primary IECs (EpCAM+ CD45−) or mucosal APCs by qPCR.

[1] = system: AhR response elements (XRE); conditions: cited from earlier work
AhR reporter = AhR reporter assay; format: cell-based; conditions: FIG. 14
NFkB reporter = NFkB reporter assay; format: cell-based; conditions: FIG. 14
24.7 NKT hybridoma = assay: Compound-conditioned MODE-K cells incubated with alpha-galactosylceramide, co-cultured with 24.7 iNKT hybridoma, IL-10 by ELISA; format: cell-based, mouse; conditions: MODE-K conditioned with compound or lysate, αGC presented on CD1d
Method: FIGS. 3A-3B depict in accordance with an embodiment of the invention, (3A) MODE-K cells transfected with control- or AhR-targeted siRNA. After 48 hours, these cells were stimulated with the compounds indicated for 48 hours. Cells were washed and incubated with alpha-galactosylceramide and subsequently co-cultured with the 24.7 NKT hybridoma. IL-10 production was measured by ELISA. (3B) Hepatocytes from WT or AhR-deficient mice were stimulated as in (3A).
FIGS. 7A-7B depict in accordance with an embodiment of the invention, (7A) structure of the OxC compound, B17 microcin. […] Cells were incubated with aGC and co-cultured with24.7 iNKT hybridoma and IL-10 production was measured. “[…]”, “G2QG2”, “GGNG”, and “GSHI” are disclosed as SEQ ID NO: 3, SEQ ID NO: 6, SEQ ID NO: 5, and SEQ ID NO: 2, respectively.
Kinetic transcript profiles of Mttp, Cxcl16, CD1d, and Hsp110 are assessed by qPCR normalizing transcript abundance to house keeping gene, (3-actin. Protein expression is quantified by immunoblot (MTTP, HSP110) or ELISA (CXCL16). CD1d protein expression is monitored using monoclonal antibodies conjugated to phycoerythrin and fluorescein isothyocynate to assess CD1d trafficking to and from the cell surface.[89]Stimulatory ligands are washed out prior to administration of αGC, and conditioned cells are co-cultured over night with 4 classes of invariant (DN32.D3, 24.7, 24.8) or non-variant (14S.6) to assess αGC specific and autoreactive responses to epithelial and myeloid cell lipid presentation. Production of IL-10, IL-4, IL-13, IFNγ response to epithelial and myeloid, and the source of cytokine production (APC or NKT) are determined using gluteraldehyde fixation. […] Strand specific libraries are generated using 500 ng RNA input and subject to paired-end 100 bp read sequencing using a HISEQ2000 at the Dana Farber Cancer Institute. Sequence reads are aligned to the mouse mm10 reference genome using Tophat alignments restricted to uniquely mapping reads with <2 possible mismatches permitted. […]

[2] = Colitis model: skin pre-sensitization, then intra-rectal administration; format: in vivo, mice
Method: Colitis scores were blindly performed by a pathologist.
Distal colon explants were cultured overnight and IL-10 (6A) and IL-13 (6B) production was measured by ELISA.
Changes in weight are monitored and colons harvested on day 3 and day 5 post-rectal challenge for histopathological analysis. Distalhyperemia in the mucosa, cellular infiltration in the lamina propria, elongation of colonic mucosa, epithelial erosion. The number of conventional T cells, NKT cells and mucosal APC subsets are enumerated by established flow cytometry protocols.[11] In addition, kinetic cytokine profiles are analyzed to verify that OxC colitis phenocopies molecular signatures associated with oxazolone colitis. […] [8] In addition, colonic IECs and lamina propria mononuclear cells are sorted by FACS and analyzed for Mttp and Cxcl16 expression by qPCR.

[3] = target: T1, aryl hydrocarbon receptor (AhR) (Homo sapiens, UniProt P35869); conditions: previous studies; cited from earlier work
T1 sequence (P35869 11-848): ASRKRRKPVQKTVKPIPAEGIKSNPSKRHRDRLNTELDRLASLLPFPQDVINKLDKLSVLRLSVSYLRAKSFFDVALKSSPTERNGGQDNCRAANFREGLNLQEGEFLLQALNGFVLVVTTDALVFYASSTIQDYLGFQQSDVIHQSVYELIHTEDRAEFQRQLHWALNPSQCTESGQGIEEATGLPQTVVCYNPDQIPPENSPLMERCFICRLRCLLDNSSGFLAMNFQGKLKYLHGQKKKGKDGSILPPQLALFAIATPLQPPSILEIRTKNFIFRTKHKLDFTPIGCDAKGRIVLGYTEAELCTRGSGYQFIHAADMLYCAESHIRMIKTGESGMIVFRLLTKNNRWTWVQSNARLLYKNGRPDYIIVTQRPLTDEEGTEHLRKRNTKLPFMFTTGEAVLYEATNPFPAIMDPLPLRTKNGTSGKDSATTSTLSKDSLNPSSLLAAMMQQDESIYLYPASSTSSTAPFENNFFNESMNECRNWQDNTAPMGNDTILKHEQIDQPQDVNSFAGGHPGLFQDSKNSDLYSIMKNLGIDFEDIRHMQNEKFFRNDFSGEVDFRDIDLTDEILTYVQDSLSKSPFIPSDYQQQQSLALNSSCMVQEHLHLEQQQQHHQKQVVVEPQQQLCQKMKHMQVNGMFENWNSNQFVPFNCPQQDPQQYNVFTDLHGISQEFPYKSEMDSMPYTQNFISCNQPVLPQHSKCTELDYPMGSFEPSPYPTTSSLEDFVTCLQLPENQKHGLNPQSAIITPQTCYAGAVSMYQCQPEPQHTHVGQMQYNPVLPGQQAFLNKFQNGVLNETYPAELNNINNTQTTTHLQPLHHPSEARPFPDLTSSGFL

AhR [4] = target: T2, AhR (Homo sapiens, UniProt P35869); conditions: hepatocyte reporter assay; cited from earlier work
T2 construct: endogenous in cells; host or cells: HepG2
T2 sequence (P35869 11-848): T1 sequence (P35869 11-848)

AhR [5] = assay: AhR targets Cyp1a1 and IDO1 by qPCR in MODE-K cells with control or AhR-targeted siRNA; format: cell-based, mouse; conditions: MODE-K cells or primary hepatocytes
Method: FIGS. 8A-8C depict in accordance with an embodiment of the invention, MODE-K transfected with control or AhR-targeted siRNA. After 48 hours, MODE-K cells were stimulated with the indicated compounds. Cyp1a1 (8A) or IDO1 (8B, 8C) were quantified by qPCR.
Stimulation of MODE-K cells with OxC compounds but not control compounds differentially regulates two well characterized AhR targets: Cyp1a1,[68] and IDO1. [FIG. 8] Specific siRNA mediated knockdown of the AhR in MODE-K cells diminished expression of both AhR targets in response to OxC stimulation.

[6] = compared to vehicle treated control animals

**Q.** For 1-methyl-pyrroline [MP], which Cxcl16 transcript expression (MODE-K cells) is on record?
**A.** Its Cxcl16 transcript expression is “loss of these biological effects”.

**Q.** What about the Mttp transcript expression (MODE-K cells) of the same compound?
**A.** Its Mttp transcript expression is “loss of these biological effects”.

**Q.** Which “Concentration activating XRE” value [1] does the source give for `COC(=O)c1csc(C(=O)c2c[nH]c3ccccc23)n1` [ITE, 2-(1H-Indol-3-carbonyl)-4-thiazolecarboxylic acid methyl ester] here?
**A.** The value was “picomolar concentrations”.

**Q.** For `CC1CC(C)C(C)C1` (stereo not shown) [TMC, 1,2,4-trimethylcyclopentane], which Cxcl16 transcript expression (MODE-K cells) is on record?
**A.** The Cxcl16 transcript expression was “loss of these biological effects”.

**Q.** And the Mttp transcript expression (MODE-K cells)?
**A.** The Mttp transcript expression was “loss of these biological effects”.

**Q.** With `CC1=NC(C)OC1C` (stereo not shown) [TMO, 2,4,5-trimethyl-2,5-dihydro-1,3-oxazole] as the compound, how does the AhR reporter activation (AhR reporter) read?
**A.** Its AhR reporter activation is “activate an AhR reporter”.

**Q.** What about the NFkB reporter activation (NFkB reporter) of the same compound?
**A.** The NFkB reporter activation was “not an NFkB reporter”.

**Q.** What about the Cxcl16 transcript expression (MODE-K cells) of the same compound?
**A.** Its Cxcl16 transcript expression is “induce CXCL16”.

**Q.** What about the Mttp transcript expression (MODE-K cells) of the same compound?
**A.** The Mttp transcript expression was “suppress Mttp”.

**Q.** What about the “IL-10 production by iNKT cells co-cultured with conditioned cells” value (shortened to “IL-10 production”) (24.7 NKT hybridoma) of the same compound?
**A.** The value was “diminished; also recorded: inhibited IL-10 production”.

**Q.** And the “Colitis phenotype in vivo” value [2, 6]?
**A.** The value was “phenocopies the inflammation associated with oxazolone”.

**Q.** What about the Colon shortening [2, 6] of the same compound?
**A.** The Colon shortening was “colon shortening”.

**Q.** What about the “Expression of Th2 cytokines” value [2, 6] of the same compound?
**A.** The value was “expression of Th2 cytokines characteristic of ulcerative colitis”.

**Q.** And the “Histopathology, blind scoring by a pathologist” value [2, 6]?
**A.** The value was “histopathology (based on blind scoring by a pathologist)”.

**Q.** And the Weight loss [2, 6]?
**A.** The Weight loss was “increased weight loss”.

**Q.** For `C=CC1(C)OC(=O)N(c2cc(Cl)cc(Cl)c2)C1=O` (stereo not shown) [Vinclozolin, vinclozolin], which AhR ligand status [3] is on record?
**A.** The AhR ligand status was “ligand for the aryl hydrocarbon receptor (AhR)”.

**Q.** What about the “AhR activation in HepG2” value (AhR [4]) of the same compound?
**A.** The value was “AhR activator”.

**Q.** What about the “Transcriptional pattern of NKT signature genes (Mttp, Cxcl16)” value (MODE-K cells) of the same compound?
**A.** The value was “demonstrates a similar transcriptional pattern”.

**Q.** And the “Cellular responses (transcriptional changes and NKT responses)” value (MODE-K cells; preliminary experiments, FIGS. 2, 3)?
**A.** The value was “elicit similar cellular responses as oxazolone and TMO”.

**Q.** What about the “IL-10 production” value (24.7 NKT hybridoma) of the same compound?
**A.** The value was “exerts modulatory effects on iNKT cell responses similar oxazolone”.

**Q.** With `CCO/C=C1\N=C(c2ccccc2)OC1=O` [oxazolone, 4-ethoxymethylene-2-phenyl-oxazol-5-one] as the compound, how does the “Expression of AhR targets Cyp1a1 and IDO1” value (AhR [5]) read?
**A.** Its value is “modulates well-characterized AhR targets”.

**Q.** And the AhR reporter activation (AhR reporter)?
**A.** Its AhR reporter activation is “activate an AhR reporter”.

**Q.** And the NFkB reporter activation (NFkB reporter)?
**A.** Its NFkB reporter activation is “not an NFkB reporter”.

**Q.** What about the Cxcl16 transcript expression (MODE-K cells) of the same compound?
**A.** Its Cxcl16 transcript expression is “induce CXCL16”.

**Q.** And the Mttp transcript expression (MODE-K cells)?
**A.** The Mttp transcript expression was “suppress Mttp”.

**Q.** And the “Transcriptional pattern of NKT signature genes (Mttp, Cxcl16)” value (MODE-K cells)?
**A.** The value was “modulates specific gene targets involved in NKT cell biology”.

**Q.** And the “IL-10 production” value (24.7 NKT hybridoma)?
**A.** The value was “diminished; also recorded: inhibited IL-10 production”.

**Q.** And the “Oxazolone colitis in Vil-Cre+ X AhR fl/fl mice” value ([2]; 3% presensitization, 1% intra-rectal, epithelial AhR deficiency)?
**A.** The value was “protected against oxazolone colitis”.
